Measurements as given in patent publication US20240368163A1, “COMPOUNDS AND METHODS FOR MODULATING SPLICING” (REMIX THERAPEUTICS INC., priority 2021, published 2024).
Read-outs that look alike come from different tables or passages of the source.

How the values were obtained:
[1] = Transwell assay for membrane efflux and permeability; assay type: in vitro ADME, Canine; details: dog; MDCK-BCRP or MDCKII-MDR1 transwell, test compound 1 μM, 2 hours at 37° C.
Description: Compounds described herein were screened for cell membrane permeability and efflux in a transwell assay using Madin-Darby Canine Kidney (MDCK) cells expressing Breast Cancer Resistance Protein (BCRP) or subclone MDCKII cells expressing Multidrug Resistance Protein 1 (MDR1).
MDCK-BCRP or MDCKII-MDR1 Cells: The Netherlands Cancer Institute, High Glucose Dulbecco's Modified Eagle's Medium (DMEM): Gibco/Thermo Fisher Scientific, Fetal Bovine Serum (FBS): Coming, Hank's Balanced Salt Solution (HBSS) and Trypsin/EDTA: Gibco/Thermo Fisher Scientific, HTS Transwell-96 Well Permeable Supports: Coming Corporation, Millicell Epithelial Volt-Ohm: Millipore, Cellometer® Vision: Nexcelom Bioscience LLC, Infinite 200 PRO microplate reader: Tecan, MTS2/4 orbital shaker: IKA Labortechnik, HEPES/Penicillin/Streptomycin: Solarbio.
MDCK-BCRP or MDCKII-MDR1 cells were seeded to each of the wells of the transwell plate at a density of 1.6×10^6 cells/mL and the plate was incubated for 4-8 days with medium changes every two days. To perform the drug transport assay, cell monolayers were first washed three times with pre-warmed HBSS and then incubated with gentle shaking (150 rpm) for 30 min at 37° C. Stock solutions of test compounds (e.g., exemplary compounds of Formulas (I), (II), and (III)) and control compounds (e.g., metoprolol, prazosin, and/or imatinib) were prepared in DMSO and adjusted to a working solution using HBSS. The final concentration of test compounds was 1 μM with DMSO; 0.5%. The plates were incubated at 37° C. for 2 hours.

[2] = test system: MYB; assay: Splicing RT-qPCR assay, MYB mRNA canonical junction (CJ) and alternative junction (AJ); assay type: cell-based, human; details: Homo sapiens; for AC50: increase in AJ mRNA
How it was run: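 Splice switching is measured in A673 or K562 cells after 24 h compound exposure (maximum 10 uM, 3-fold steps). Canonical and alternative junction mRNA levels are quantified by RT-qPCR relative to housekeeper and DMSO.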

[3] = 24 h, decrease in CJ mRNA, A673 or K562 cells, 24 hours treatment, RT-qPCR, read-out: MYB CJ IC50
[4] = 24 h, A673 or K562 cells, 24 hours treatment, RT-qPCR
[5] = RT-qPCR panel, canonical junction mRNA, compound concentration having 50% response in CJ decrease, read-out: MYB IC50 (decrease in CJ mRNA levels)

CN(c1ccc(-c2cc(F)c(-c3cn[nH]c3)c3cn[nH]c23)nn1)[C@@H]1C[C@H]2CC(F)(F)[C@@H](C1)N2 (stereo in doubt) [Compound 378, 6,6-difluoro-N-{6-[5-fluoro-4-(1H-pyrazol-4-yl)-1H-indazol-7-yl]pyridazin-3-yl}-N-methyl-8-azabicyclo[3.2.1]octan-3-amine] showed a Papp at 2 h, 1 μM [1] of 2 to 6 ×10⁻⁶ cm/s, an efflux ratio at 2 h, 1 μM [1] of over 5 and an IC50 [2, 3] of 100 to 1000 nM. It also gave an AC50 [2, 4] of under 100 nM and an IC50 [2, 5] of 100 to 1000 nM.
CN(c1ccc(-c2ccc(-c3cn[nH]c3)c3ncsc23)nn1)[C@@H]1C[C@H]2CC(F)(F)[C@@H](C1)N2 (stereo in doubt) [Compound 379, 6,6-difluoro-N-methyl-N-{6-[4-(1H-pyrazol-4-yl)-1,3-benzothiazol-7-yl]pyridazin-3-yl}-8-azabicyclo [3.2.1]octan-3-amine] gave a Papp at 2 h, 1 μM [1] of 2 to 6 ×10⁻⁶ cm/s, an efflux ratio at 2 h, 1 μM [1] of 1.5 to 5 and an IC50 [2, 3] of 100 to 1000 nM. The AC50 [2, 4] was 100 to 1000 nM and the IC50 [2, 5] was 100 to 1000 nM.
CN(c1ccc(-c2ccc(-c3cn[nH]c3)c3cn[nH]c23)nn1)[C@@H]1C[C@H]2CC[C@@H](C1)N2 [Compound 104] showed a Papp at 2 h, 1 μM [1] of under 2 ×10⁻⁶ cm/s, an efflux ratio at 2 h, 1 μM [1] of over 5 and an IC50 [2, 3] of 1000 to 10000 nM. The AC50 [2, 4] was 1000 to 10000 nM and the IC50 [2, 5] was 1000 to 10000 nM.
CN(c1ccc(-c2ccc(-n3cccn3)c3cn[nH]c23)nn1)[C@@H]1C[C@H]2CC[C@@H](C1)N2 [Compound 105] gave a Papp at 2 h, 1 μM [1] of under 2 ×10⁻⁶ cm/s, an efflux ratio at 2 h, 1 μM [1] of over 5 and an IC50 [2, 3] of under 100 nM. It also gave an AC50 [2, 4] of 100 to 1000 nM and an IC50 [2, 5] of under 100 nM.
CN(c1ccc(-c2ccc(-c3cn[nH]c3)c3ncsc23)nn1)C1CC(C)(C)NC(C)(C)C1 [Compound 132] gave a Papp at 2 h, 1 μM [1] of under 2 ×10⁻⁶ cm/s, an efflux ratio at 2 h, 1 μM [1] of over 5 and an IC50 [2, 3] of 100 to 1000 nM. It also gave an AC50 [2, 4] of 1000 to 10000 nM and an IC50 [2, 5] of 100 to 1000 nM.
For CN(c1ccc(-c2ccc(-c3cn[nH]c3)c3cn[nH]c23)nn1)C1CC(C)(C)NC(C)(C)C1 [Compound 137], the Papp at 2 h, 1 μM [1] was under 2 ×10⁻⁶ cm/s, the efflux ratio at 2 h, 1 μM [1] was over 5 and the IC50 [2, 3] was 1000 to 10000 nM. For the same compound, the AC50 [2, 4] was 1000 to 10000 nM and the IC50 [2, 5] was 1000 to 10000 nM.
Compound CN(c1ccc(-c2ccc(-c3ccc(=O)n(C)c3)c3scnc23)nn1)C1CC(C)(C)NC(C)(C)C1 [Compound 178] has a Papp at 2 h, 1 μM [1] of under 2 ×10⁻⁶ cm/s, an efflux ratio at 2 h, 1 μM [1] of over 5 and an IC50 [2, 3] of 1000 to 10000 nM. The AC50 [2, 4] was over 10000 nM and the IC50 [2, 5] was 1000 to 10000 nM.
Compound CC1(C)CC(Oc2ccc(-c3ccc(-c4cn[nH]c4)c4ncsc34)nn2)CCN1 (stereo not shown) [Compound 182] has a Papp at 2 h, 1 μM [1] of under 2 ×10⁻⁶ cm/s, an efflux ratio at 2 h, 1 μM [1] of over 5 and an IC50 [2, 3] of 1000 to 10000 nM. The AC50 [2, 4] was over 10000 nM and the IC50 [2, 5] was 1000 to 10000 nM.
In the case of c1nc2c(-c3cn[nH]c3)ccc(-c3ccc(OC4CCNCC4)nn3)c2s1 [Compound 183], the Papp at 2 h, 1 μM [1] is reported as under 2 ×10⁻⁶ cm/s, the efflux ratio at 2 h, 1 μM [1] is reported as over 5 and the IC50 [2, 3] is reported as 100 to 1000 nM. For the same compound, the AC50 [2, 4] was 100 to 1000 nM and the IC50 [2, 5] was 100 to 1000 nM.
For c1nc2c(-c3cn[nH]c3)ccc(-c3ccc(O[C@@H]4C[C@H]5CC[C@@H](C4)N5)nn3)c2s1 [Compound 184], the Papp at 2 h, 1 μM [1] was under 2 ×10⁻⁶ cm/s, the efflux ratio at 2 h, 1 μM [1] was over 5 and the IC50 [2, 3] was 100 to 1000 nM. It also gave an AC50 [2, 4] of under 100 nM and an IC50 [2, 5] of 100 to 1000 nM.
Compound CC1(C)CC(Nc2ccc(-c3ccc(-c4cn[nH]c4)c4ncsc34)nn2)CC(C)(C)N1 [Compound 186] has a Papp at 2 h, 1 μM [1] of under 2 ×10⁻⁶ cm/s, an efflux ratio at 2 h, 1 μM [1] of over 5 and an IC50 [2, 3] of 100 to 1000 nM. It also gave an AC50 [2, 4] of over 10000 nM and an IC50 [2, 5] of 100 to 1000 nM.
For c1nc2c(-c3cn[nH]c3)ccc(-c3ccc(N[C@@H]4C[C@H]5CC[C@@H](C4)N5)nn3)c2s1 [Compound 202], the Papp at 2 h, 1 μM [1] was under 2 ×10⁻⁶ cm/s, the efflux ratio at 2 h, 1 μM [1] was over 5 and the IC50 [2, 3] was 100 to 1000 nM. The AC50 [2, 4] was 100 to 1000 nM and the IC50 [2, 5] was 100 to 1000 nM.
Compound CCN(c1ccc(C2=CC=C(c3cn[nH]c3)C3N=CSC23)nn1)[C@@H]1C[C@H]2CC[C@@H](C1)N2 (stereo partly shown) [Compound 203] has a Papp at 2 h, 1 μM [1] of under 2 ×10⁻⁶ cm/s, an efflux ratio at 2 h, 1 μM [1] of over 5 and an IC50 [2, 3] of 100 to 1000 nM. The AC50 [2, 4] was 100 to 1000 nM and the IC50 [2, 5] was 100 to 1000 nM.
Work on CN(c1ccc(-c2ccc(-c3cn[nH]c3)c3ncsc23)nn1)[C@H]1C[C@]2(C)CC[C@](C)(C1)N2 [Compound 204] yielded a Papp at 2 h, 1 μM [1] of under 2 ×10⁻⁶ cm/s, an efflux ratio at 2 h, 1 μM [1] of over 5 and an IC50 [2, 3] of under 100 nM. For the same compound, the AC50 [2, 4] was 100 to 1000 nM and the IC50 [2, 5] was under 100 nM.
